According to the supplement of paper PMC10627819:

Key:
B. subtilis 168 [1] = assay: fitness (endpoint OD595 vs no drug) (fraction); higher = more growth
Procedure, shortened: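 At 37 °C, bacteria in TSB, LB Lennox or CY were grown in 384-well plates from a starting OD595 of 0.01. OD595 was measured every 30 min for 14 h, with the first reading used as background. Fitness is the optical density at the switch to stationary phase as a fraction of the robust mean of no-drug control wells, capped at 1.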

B. subtilis 168 [2] = assay: Bliss interaction score (quartile over a dose matrix) (fitness difference); higher = more antagonism (negative = synergy)
Procedure, shortened: (§1)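 The Bliss score was calculated by subtracting the expected fitness, the product of single-drug values, from the observed fitness. OD595 at entry into stationary phase, over the plate's robust no-drug mean and capped at 1, served as the fitness readout. Single-drug values were inferred from combination data, and scores are summarised by quartiles across technical, biological and donor/recipient replicates.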

S. aureus DSM 20231 = assay: as above
Procedure, shortened: as §1

S. aureus Newman = assay: as above
Procedure, shortened: as §1

S. pneumoniae D39V = assay: as above
Procedure, shortened: as §1
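Throughout, for Bliss interaction score (quartile over a dose matrix): first quartile when negative (synergy) and third quartile when positive (antagonism).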

C[C@H]1c2cccc(O)c2C(=O)C2=C(O)[C@]3(O)C(=O)C(C(N)=O)=C(O)[C@@H](N(C)C)[C@@H]3[C@@H](O)[C@@H]21 [Doxycycline] + COc1cc(Cc2cnc(N)nc2N)cc(OC)c1OC [Trimethoprim]
fitness, B. subtilis 168 [1], one replicate
Settings | partner 0.1 µg/mL | partner 0.2 µg/mL | partner 0.4 µg/mL | partner 1 µg/mL | partner 2 µg/mL
first compound 0.02 µg/mL | 0.84 | 0.754 | 0.616 | 0.346 | 0.259
first compound 0.04 µg/mL | 0.683 | 0.51 | 0.391 | 0.234 | 0.146
first compound 0.08 µg/mL | 0.362 | 0.222 | 0.156 | 0.0631 | 0.0715

fitness, B. subtilis 168 [1]
Settings | first compound 0.02 µg/mL | first compound 0.04 µg/mL | first compound 0.08 µg/mL
partner 0.125 µg/mL | 0.695 | 0.659 | 0.52
partner 0.25 µg/mL | – | 0.644 | 0.448
partner 0.5 µg/mL | – | 0.412 | 0.262

Settings | Bliss interaction score
B. subtilis 168 [2] | 0.0804
S. aureus DSM 20231 | 0.108
S. aureus Newman | 0.028
S. pneumoniae D39V | -0.108

CO/N=C(\C(=O)N[C@@H]1C(=O)N2C(C(=O)O)=C(COC(N)=O)CS[C@H]12)c1ccco1 [Cefuroxime] + CCC[C@@H]1C[C@@H](C(=O)N[C@@H]([C@H]2O[C@H](SC)[C@H](O)[C@@H](O)[C@H]2O)[C@@H](C)O)N(C)C1 [Lincomycin]
fitness, B. subtilis 168 [1], one replicate
Settings | first compound 0.04875 µg/mL | first compound 0.0975 µg/mL | first compound 0.195 µg/mL | first compound 0.39 µg/mL | first compound 0.78 µg/mL | first compound 1.562 µg/mL | first compound 3.125 µg/mL | first compound 6.25 µg/mL
partner 0.1 µg/mL | 0.88 | 0.8 | – | 0.388 | 0.386 | 0.303 | 0.248 | 0.156
partner 0.2 µg/mL | 0.865 | 0.713 | – | 0.358 | 0.372 | 0.265 | 0.19 | 0.137
partner 0.4 µg/mL | – | – | – | 0.373 | 0.319 | 0.265 | 0.175 | 0.101
partner 0.8 µg/mL | 0.505 | 0.467 | 0.359 | – | – | – | – | –
partner 1.6 µg/mL | 0.498 | 0.428 | 0.323 | – | – | – | – | –

fitness, B. subtilis 168 [1]
Settings | first compound 0.04875 µg/mL | first compound 0.0975 µg/mL | first compound 0.195 µg/mL
partner 0.1 µg/mL | – | – | 0.554
partner 0.2 µg/mL | – | – | 0.521
partner 0.4 µg/mL | 0.682 | 0.644 | 0.396

Settings | Bliss interaction score
B. subtilis 168 [2] | 0.0554
S. aureus DSM 20231 | -0.223
S. aureus Newman | -0.0658
S. pneumoniae D39V | 0.0595

CO/N=C(\C(=O)N[C@@H]1C(=O)N2C(C(=O)O)=C(COC(N)=O)CS[C@H]12)c1ccco1 [Cefuroxime] + COc1cc(Cc2cnc(N)nc2N)cc(OC)c1OC [Trimethoprim]
fitness, B. subtilis 168 [1], one replicate
Settings | partner 0.1 µg/mL | partner 0.125 µg/mL | partner 0.2 µg/mL | partner 0.25 µg/mL | partner 0.4 µg/mL | partner 1 µg/mL | partner 2 µg/mL
first compound 0.04875 µg/mL | – | 0.392 | – | 0.382 | – | 0.37 | 0.375
first compound 0.0975 µg/mL | – | 0.443 | – | 0.46 | – | 0.315 | 0.247
first compound 0.195 µg/mL | 0.325 | – | 0.259 | – | 0.115 | 0.279 | 0.147
first compound 0.39 µg/mL | 0.162 | 0.227 | 0.262 | – | 0.207 | – | –
first compound 0.78 µg/mL | 0.237 | 0.155 | 0.221 | – | 0.17 | – | –

fitness, B. subtilis 168 [1]
Settings | first compound 0.04875 µg/mL | first compound 0.0975 µg/mL | first compound 0.195 µg/mL | first compound 0.39 µg/mL | first compound 0.78 µg/mL | first compound 1.562 µg/mL | first compound 3.125 µg/mL | first compound 6.25 µg/mL
partner 0.125 µg/mL | – | – | 0.289 | – | – | – | – | –
partner 0.25 µg/mL | – | – | 0.315 | 0.187 | 0.178 | – | – | –
partner 0.5 µg/mL | 0.397 | 0.407 | 0.29 | 0.19 | 0.168 | 0.286 | 0.26 | 0.255

Settings | Bliss interaction score
B. subtilis 168 [2] | 0.098
S. aureus DSM 20231 | -0.188
S. aureus Newman | -0.438
S. pneumoniae D39V | -0.0241

CN(C)c1cc(NC(=O)CNC(C)(C)C)c(O)c2c1C[C@H]1C[C@H]3[C@H](N(C)C)C(O)=C(C(N)=O)C(=O)[C@@]3(O)C(O)=C1C2=O [Tigecycline] + COc1cc(Cc2cnc(N)nc2N)cc(OC)c1OC [Trimethoprim]
fitness, B. subtilis 168 [1], one replicate
Settings | partner 0.1 µg/mL | partner 0.125 µg/mL | partner 0.2 µg/mL | partner 0.25 µg/mL | partner 0.4 µg/mL | partner 0.5 µg/mL | partner 1 µg/mL | partner 2 µg/mL
first compound 0.039 µg/mL | 0.879 | 0.739 | 0.77 | – | 0.58 | – | 0.505 | 0.438
first compound 0.078 µg/mL | 0.896 | 0.727 | 0.754 | – | 0.577 | – | 0.455 | 0.408
first compound 0.125 µg/mL | – | 0.898 | – | 0.749 | – | 0.694 | – | –
first compound 0.156 µg/mL | 0.883 | 0.758 | 0.814 | – | 0.546 | – | 0.402 | 0.357
first compound 0.25 µg/mL | – | 0.798 | – | 0.546 | – | 0.55 | – | –
first compound 0.5 µg/mL | – | 0.87 | – | 0.695 | – | 0.633 | – | –

fitness, B. subtilis 168 [1]
Settings | first compound 0.039 µg/mL | first compound 0.078 µg/mL | first compound 0.156 µg/mL
partner 0.25 µg/mL | 0.657 | 0.653 | 0.677
partner 0.5 µg/mL | 0.567 | 0.532 | 0.529

Settings | Bliss interaction score
B. subtilis 168 [2] | 0.121
S. aureus DSM 20231 | -0.0664
S. aureus Newman | -0.0503
S. pneumoniae D39V | -0.119

CO/N=C(\C(=O)N[C@@H]1C(=O)N2C(C(=O)O)=C(COC(N)=O)CS[C@H]12)c1ccco1 [Cefuroxime] + C[C@H]1c2cccc(O)c2C(=O)C2=C(O)[C@]3(O)C(=O)C(C(N)=O)=C(O)[C@@H](N(C)C)[C@@H]3[C@@H](O)[C@@H]21 [Doxycycline]
fitness, B. subtilis 168 [1]
Settings | first compound 0.04875 µg/mL | first compound 0.0975 µg/mL | first compound 0.195 µg/mL
partner 0.02 µg/mL | 0.663 | 0.603 | 0.514
partner 0.04 µg/mL | 0.6 | 0.525 | 0.358
partner 0.08 µg/mL | 0.174 | 0.14 | 0.12

fitness, B. subtilis 168 [1], one replicate
Settings | first compound 0.39 µg/mL | first compound 0.78 µg/mL | first compound 1.562 µg/mL | first compound 3.125 µg/mL | first compound 6.25 µg/mL
partner 0.02 µg/mL | 0.488 | 0.451 | 0.441 | 0.424 | 0.393
partner 0.04 µg/mL | 0.313 | 0.298 | 0.239 | 0.148 | 0.0995
partner 0.08 µg/mL | 0.236 | 0.225 | 0.0559 | 0.0405 | 0.0345

Settings | Bliss interaction score
B. subtilis 168 [2] | 0.105
S. aureus DSM 20231 | -0.257
S. aureus Newman | -0.0377
S. pneumoniae D39V | 0.0445

CO/N=C(\C(=O)N[C@@H]1C(=O)N2C(C(=O)O)=C(COC(N)=O)CS[C@H]12)c1ccco1 [Cefuroxime] + CCC(C)C1C(=O)NC(=C)C(=O)NC(C(=O)NC(CSCC(C(=O)N1)NC(=O)/C(=C/C)/NC(=O)C(C(C)CC)N)C(=O)NC2C(SCC(NC(=O)CNC(=O)C3CCCN3C2=O)C(=O)NC(CCCCN)C(=O)NC4C(SCC(NC(=O)CNC(=O)C(NC(=O)C(NC(=O)C(NC(=O)CNC4=O)C)CC(C)C)CCSC)C(=O)NC(CC(=O)N)C(=O)NC(CCSC)C(=O)NC(CCCCN)C(=O)NC5C(SCC6C(=O)NC(C(=O)NC(CSC(C(C(=O)N6)NC(=O)C(NC5=O)C)C)C(=O)NC(CO)C(=O)NC(C(C)CC)C(=O)NC(CC7=CN=CN7)C(=O)NC(C(C)C)C(=O)NC(=C)C(=O)NC(CCCCN)C(=O)O)CC8=CN=CN8)C)C)C)CC(C)C [Nisin]
B. subtilis 168 [1], one replicate, main component drawn
Settings | fitness
first compound 0.04875 µg/mL, partner 0.5 µg/mL | 0.608
first compound 0.04875 µg/mL, partner 1 µg/mL | 0.529
first compound 0.04875 µg/mL, partner 2 µg/mL | 0.417
first compound 0.04875 µg/mL, partner 4 µg/mL | 0.0351
first compound 0.04875 µg/mL, partner 8 µg/mL | 0.0258
first compound 0.04875 µg/mL, partner 16 µg/mL | 0.0482
first compound 0.0975 µg/mL, partner 0.5 µg/mL | 0.471
first compound 0.0975 µg/mL, partner 1 µg/mL | 0.427
first compound 0.0975 µg/mL, partner 2 µg/mL | 0.261
first compound 0.0975 µg/mL, partner 4 µg/mL | 0.032
first compound 0.0975 µg/mL, partner 8 µg/mL | 0.0195
first compound 0.0975 µg/mL, partner 16 µg/mL | 0.02
first compound 0.195 µg/mL, partner 0.5 µg/mL | 0.385
first compound 0.195 µg/mL, partner 1 µg/mL | 0.382
first compound 0.195 µg/mL, partner 1.25 µg/mL | 0.173
first compound 0.195 µg/mL, partner 1.6 µg/mL | 0.0755
first compound 0.195 µg/mL, partner 2 µg/mL | 0.278
first compound 0.195 µg/mL, partner 2.5 µg/mL | 0.0381
first compound 0.195 µg/mL, partner 3.2 µg/mL | 0.0377
first compound 0.195 µg/mL, partner 4 µg/mL | 0.0274
first compound 0.195 µg/mL, partner 5 µg/mL | 0.0619
first compound 0.195 µg/mL, partner 6.4 µg/mL | 0.0264
first compound 0.195 µg/mL, partner 8 µg/mL | 0.0204
first compound 0.195 µg/mL, partner 16 µg/mL | 0.0103
first compound 0.39 µg/mL, partner 1.25 µg/mL | 0.086
first compound 0.39 µg/mL, partner 1.6 µg/mL | 0.0435
first compound 0.39 µg/mL, partner 2.5 µg/mL | 0.0309
first compound 0.39 µg/mL, partner 3.2 µg/mL | 0.0108
first compound 0.39 µg/mL, partner 5 µg/mL | 0.0219
first compound 0.39 µg/mL, partner 6.4 µg/mL | 0.0352
first compound 0.78 µg/mL, partner 1.25 µg/mL | 0.0678
first compound 0.78 µg/mL, partner 1.6 µg/mL | 0.0281
first compound 0.78 µg/mL, partner 2.5 µg/mL | 0.0242
first compound 0.78 µg/mL, partner 3.2 µg/mL | 0.0058
first compound 0.78 µg/mL, partner 5 µg/mL | 0.0235
first compound 0.78 µg/mL, partner 6.4 µg/mL | 0.0238
first compound 1.562 µg/mL, partner 0.5 µg/mL | 0.257
first compound 1.562 µg/mL, partner 1 µg/mL | 0.0875
first compound 1.562 µg/mL, partner 2 µg/mL | 0.038
first compound 3.125 µg/mL, partner 0.5 µg/mL | 0.173
first compound 3.125 µg/mL, partner 1 µg/mL | 0.0836
first compound 3.125 µg/mL, partner 2 µg/mL | 0.02
first compound 6.25 µg/mL, partner 0.5 µg/mL | 0.105
first compound 6.25 µg/mL, partner 1 µg/mL | 0.0185
first compound 6.25 µg/mL, partner 2 µg/mL | 0.0198

main component drawn
Settings | Bliss interaction score
B. subtilis 168 [2] | -0.0638
S. aureus DSM 20231 | -0.109
S. aureus Newman | -0.331
S. pneumoniae D39V | 0.0468
